Experimental data taken from patent US8796284B2, “4-aminopyrimidine derivatives and their as as adenosine A2a receptor antagonists” (Palobiofarma, S.L., priority 2010, dated 2014).

molecular target: hA2a receptors (Homo sapiens (Human), UniProt P29274); experiment: Adenosine A2a receptor subtype competition radioligand binding assay; details: membranes from hA2a receptors transfected to HeLa cells, [3H]ZM241385 as radioligand, Cheng-Prusoff
Method: Pharmacological Activity Adenosine A2a Receptor Subtype Competition Radioligand Binding Assay
Human membranes from recombinant adenosine receptors were purchased from Receptor Biology, Inc. (USA)
Competition assays were carried out by incubation of membranes from hA2a receptors transfected to HeLa cells, [^3H]ZM241385 as radioligand, buffer (50 mM Tris-HCl (pH=7.4), 10 mM MgCl2, 1 mM EDTA, 2 units/ml adenosine deaminase), and unlabelled ligand in a total volume of 0.2 ml for 30 min at 25° C. NECA was used to determinate non-specific binding. Filter over Schleicher&Schuell GF/52 filters (pre-soaked 0.5% polyethylenimine) in a Brandel cell harvester. Unbound radioligand was removed with 3×250 μl ice-cold 50 mM Tris-HCl (pH=7.4), 10 mM MgCl and 1 mM EDTA.
(§1) Concentration-response binding competition curves were carried out by assaying 6 different concentrations (range between 10 nm to 100 μM). […] IC50 values were obtained by fitting the data with non-linear regression, with Prism 2.1 software (GraphPad, San Diego, Calif.). Cyclic Adenosine Monophosphate Production Measurement.

Chain of hA2a receptors (P29274 whole entry): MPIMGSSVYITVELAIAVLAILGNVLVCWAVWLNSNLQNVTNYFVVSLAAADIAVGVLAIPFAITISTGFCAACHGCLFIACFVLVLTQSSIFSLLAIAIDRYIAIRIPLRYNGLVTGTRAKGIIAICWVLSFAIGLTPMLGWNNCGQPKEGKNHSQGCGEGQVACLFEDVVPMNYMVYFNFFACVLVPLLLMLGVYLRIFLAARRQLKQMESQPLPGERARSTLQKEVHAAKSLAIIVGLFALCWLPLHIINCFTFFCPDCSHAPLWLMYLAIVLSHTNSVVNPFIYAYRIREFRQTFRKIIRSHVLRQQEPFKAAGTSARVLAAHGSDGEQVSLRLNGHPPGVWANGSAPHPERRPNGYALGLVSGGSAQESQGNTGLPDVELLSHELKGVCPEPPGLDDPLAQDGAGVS

Row | Structure (SMILES) | Ki
1 | Nc1nc(-n2cccn2)nc(NCC2CC2)c1Br [Example 29, 5-bromo-N^4-(cyclopropylmethyl)-2-(1H-pyrazol-1-yl)pyrimidine-4,6-diamine] | 10 nM
2 | Nc1nc(-n2cccn2)nc(NC2CC2)c1Br [Example 8, 5-bromo-N^4-cyclopropyl-2-(1H-pyrazol-1-yl)pyrimidine-4,6-diamine] | 18 nM
3 | Nc1nc(-n2cccn2)nc(N2CCCCC2)c1Br [Example 5, 5-bromo-6-(piperidin-1-yl)-2-(1H-pyrazol-1-yl)pyrimidin-4-amine] | 14 nM
4 | Nc1nc(-n2cccn2)nc(-n2cccn2)c1Cl [Example 46, 5-chloro-2,6-di-(1H-pyrazol-1-yl)pyrimidine-4-amine] | 17 nM
5 | CN(C)c1nc(-n2cccn2)nc(N)c1Br [Example 13, 5-bromo-N^4,N^4-dimethyl-2-(1H-pyrazol-1-yl)pyrimidine-4,6-diamine] | 35 nM
6 | Nc1nc(-n2cccn2)nc(N2CCCC2)c1Br [Example 3, 5-bromo-2-(1H-pyrazol-1-yl)-6-(pyrrolidin-1-yl)pyrimidin-4-amine] | 11 nM
7 | Nc1nc(-n2cccn2)nc(NC2CCC2)c1Br [Example 10, 5-bromo-N^4-cyclobutyl-2-(1H-pyrazol-1-yl)pyrimidine-4,6-diamine] | 21 nM
8 | COC[C@H]1CCCN1c1nc(-n2cccn2)nc(N)c1Br [Example 20, 5-bromo-6-((R)-2-(methoxymethyl)pyrrolidin-1-yl)-2-(1H-pyrazol-1-yl)pyrimidin-4-amine] | 14 nM
9 | CNc1nc(-n2cccn2)nc(N)c1Br [Example 24, 5-bromo-N^4-methyl-2-(1H-pyrazol-1-yl)pyrimidine-4,6-diamine] | 16 nM
10 | Nc1nc(-n2cccn2)nc(N2CCC2)c1Br [Example 9, 6-(azetidin-1-yl)-5-bromo-2-(1H-pyrazol-1-yl)pyrimidin-4-amine] | 33 nM
11 | Nc1nc(-n2cccn2)nc(OCC(F)(F)F)c1Br [Example 44, 6-(2,2,2-trifluoroethoxy)-5-bromo-2-(1H-pyrazol-1-yl)pyrimidin-4-amine] | 14 nM

The next compounds have a lower Ki than those just listed; values first:

Row | Ki | Structure (SMILES)
12 | 8 nM | CCSc1nc(-n2cccn2)nc(N)c1Br [Example 36, 5-bromo-6-(ethylthio)-2-(1H-pyrazol-1-yl)pyrimidin-4-amine]
13 | 7 nM | CC(C)Sc1nc(-n2cccn2)nc(N)c1Br [Example 38, 5-bromo-6-(isopropylthio)-2-(1H-pyrazol-1-yl)pyrimidin-4-amine]
14 | 7 nM | N#Cc1c(N)nc(-n2cccn2)nc1-n1cccn1 [Example 48, 4-amino-2,6-di-(1H-pyrazol-1-yl)pyrimidine-5-carbonitrile]
15 | 6 nM | Nc1nc(-n2cccn2)nc(NC2CCCC2)c1Br [Example 4, 5-bromo-N^4-cyclopentyl-2-(1H-pyrazol-1-yl)pyrimidine-4,6-diamine]
16 | 1 nM | Nc1nc(-c2nccs2)nc(-c2nccs2)c1Br [Example 93, 5-Bromo-2,6-di(thiazol-2-yl)pyrimidin-4-amine]

molecular target: A2a adenosine receptor (Homo sapiens (Human), UniProt P29274); experiment: Cyclic adenosine monophosphate (cAMP) production measurement in CHO-A2A cells; assay type: cell-based; details: 1 μM NECA, 30 μM rolipram, cAMP enzymeimmunoassay
Sequence (P29274 whole entry): as above
Method: as §1
These assays were performed at adenosine receptors transfected using a cAMP enzymeimmunoassay kit (Amersham Biosciences). CHO-A2A cells were seeded (10000 cells/well) in 96-well culture plates and incubated at 37° C. in an atmosphere with 5% CO2 in Dulbecco's Modified Eagle's Medium Nutrient Mixture F-12 (DMEM F-12), containing 10% Foetal Calf Serum (FCS) and 1% L-Glutamine. Cells were washed 3× with 200 μl assay medium (DMEM-F12 and 25 mM HEPES pH=7.4) and pre-incubated with assay medium containing 30 μM rolipram and test compounds at 37° C. for 15 min. 1 μM NECA was incubated for 15 min at 37° C. (total incubation time 30 min). Reaction was stopped with lysis buffer supplied in the kit and the enzymeimmunoassay was carried out for detection of intracellular cAMP at 450 nm in an Ultra Evolution detector (Tecan). Data were fitted by non-linear regression using GraphPad Prism v2.01 (GraphPad Software).

Row | Ki | Structure (SMILES)
17 | 12 nM | Nc1nc(-c2nccs2)nc(-c2nccs2)c1Br [Example 93, 5-Bromo-2,6-di(thiazol-2-yl)pyrimidin-4-amine]
18 | 60 nM | Nc1nc(-n2cccn2)nc(NC2CC2)c1Br [Example 8, 5-bromo-N^4-cyclopropyl-2-(1H-pyrazol-1-yl)pyrimidine-4,6-diamine]
19 | 50 nM | CN(C)c1nc(-n2cccn2)nc(N)c1Br [Example 13, 5-bromo-N^4,N^4-dimethyl-2-(1H-pyrazol-1-yl)pyrimidine-4,6-diamine]
